Assay results: patent US8415469B2, “Compounds and methods for kinase modulation, and indications therefor” (Plexxikon Inc., priority 2005, dated 2013)

Columns and labels:
Assay type in all cases: biochemical
Ret = target: T1, Ret (Homo sapiens, UniProt P07949); experiment: AlphaScreen kinase assay, Ret; conditions: read-out: IC50, activity toward kinase Ret
T1 construct: P1378.pET-SF BI-PTP RET H661-R1012 HIS; made in house
T1 sequence (P07949 with tags, fused parts or gaps): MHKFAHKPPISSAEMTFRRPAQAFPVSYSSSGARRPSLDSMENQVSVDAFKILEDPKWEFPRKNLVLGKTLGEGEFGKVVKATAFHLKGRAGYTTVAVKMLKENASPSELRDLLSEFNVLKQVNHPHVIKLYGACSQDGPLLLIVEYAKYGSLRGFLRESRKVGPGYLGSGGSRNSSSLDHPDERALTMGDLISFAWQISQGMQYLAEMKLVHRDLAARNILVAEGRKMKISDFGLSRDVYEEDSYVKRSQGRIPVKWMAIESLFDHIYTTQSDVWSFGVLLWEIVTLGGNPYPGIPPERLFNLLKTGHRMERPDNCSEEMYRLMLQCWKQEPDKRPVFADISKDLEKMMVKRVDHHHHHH

Gsk3β = Gsk3β (Homo sapiens, UniProt P49841); experiment: AlphaScreen kinase assay, Gsk3β; conditions: read-out: IC50, activity toward kinase Gsk3β
Text: AlphaScreen assay was used to screen additional kinases. The assay is similarly dependent on the phosphorylation of a peptide substrate. In this assay, an antibody that recognizes phosphorylated substrate is bound to an acceptor bead. The peptide substrate is attached to biotin, which binds to a donor head that contains streptavidin. Thus phosphorylated substrate is bound by antibody and streptavidin, bringing the donor and acceptor heads into close proximity when kinase is not inhibited. The donor produces singlet oxygen which results in emission from the acceptor when they are in close proximity. Conversely, when kinase is inhibited, the donor and acceptor beads are not associated and the emission from the acceptor is reduced.
AlphaScreen assays were done using compounds dissolved in DMSO to a concentration of 20 mM. The compounds were diluted accordingly to the desired final concentrations in each sample well, using 1:3 serial dilution for a total of 8 concentration points.

B-Raf V600E = target: T2, B-Raf V600E (Homo sapiens, UniProt P15056, V600E); experiment: AlphaScreen kinase assay, B-Raf V600E; conditions: read-out: IC50, activity toward kinase B-Raf V600E
T2 construct: P4254. pFastBacBD-CDC37 BRAF D437-K722-X, V600E; His6 with pFastBac HT leader (TEV site) (N); made in house; host or cells: Sf9 (baculovirus; chaperone CDC37 co-expressed)

EphB2 = target: T3, EphB2 (Homo sapiens, UniProt P29323); experiment: Z'-Lyte FRET kinase assay (Invitrogen), EphB2; conditions: read-out: IC50, activity toward kinase EphB2
T3 construct: purchased Invitrogen (assay run by Invitrogen)
T3 sequence (P29323 19-1055): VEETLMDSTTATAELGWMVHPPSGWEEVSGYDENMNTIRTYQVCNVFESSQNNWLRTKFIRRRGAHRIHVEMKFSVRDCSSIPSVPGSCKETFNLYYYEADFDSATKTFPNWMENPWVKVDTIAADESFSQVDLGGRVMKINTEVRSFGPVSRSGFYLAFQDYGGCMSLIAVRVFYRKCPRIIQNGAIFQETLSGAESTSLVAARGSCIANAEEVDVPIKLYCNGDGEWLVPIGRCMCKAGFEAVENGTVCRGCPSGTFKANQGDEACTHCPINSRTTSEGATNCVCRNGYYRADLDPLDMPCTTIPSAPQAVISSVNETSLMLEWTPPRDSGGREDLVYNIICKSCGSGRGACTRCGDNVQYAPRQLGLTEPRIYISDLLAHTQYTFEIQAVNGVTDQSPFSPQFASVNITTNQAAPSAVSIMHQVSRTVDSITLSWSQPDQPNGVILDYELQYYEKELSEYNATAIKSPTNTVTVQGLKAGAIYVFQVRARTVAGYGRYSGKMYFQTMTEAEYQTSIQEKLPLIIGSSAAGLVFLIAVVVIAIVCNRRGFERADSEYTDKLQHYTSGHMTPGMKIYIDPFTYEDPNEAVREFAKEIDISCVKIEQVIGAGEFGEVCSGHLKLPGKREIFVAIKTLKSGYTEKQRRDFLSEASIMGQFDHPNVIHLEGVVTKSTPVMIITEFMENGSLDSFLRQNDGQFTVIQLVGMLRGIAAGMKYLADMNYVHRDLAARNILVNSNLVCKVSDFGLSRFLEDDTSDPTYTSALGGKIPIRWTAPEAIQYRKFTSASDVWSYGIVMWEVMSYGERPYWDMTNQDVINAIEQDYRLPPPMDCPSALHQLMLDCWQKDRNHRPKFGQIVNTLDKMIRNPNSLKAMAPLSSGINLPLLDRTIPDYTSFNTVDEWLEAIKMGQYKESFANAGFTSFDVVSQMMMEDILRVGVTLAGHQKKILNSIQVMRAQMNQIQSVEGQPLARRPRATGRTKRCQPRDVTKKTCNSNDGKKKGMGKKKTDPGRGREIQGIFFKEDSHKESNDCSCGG
Text: The effect of potential modulators of kinase activity can be measured in a variety of different assays known in the art. For example, direct radiometric, indirect FRET or AlphaScreen assays may be used to assess the level of phosphorylation of a substrate in the presence of test compounds in order to determine the inhibitory affect of the compound on the kinase. Invitrogen (Carlsbad, Calif.) uses a FRET based assay for Btk, EGFR, EphB2, Flt3, lrak4, Kdr, MAP2K1, MAPKAPK2, PDGFRB, PKC theta, Stk6 and Yes. For these assays, compounds of the invention were screened by Invitrogen using Z′-Lyte™ kinase assay.
Briefly, the Invitrogen kinase assay involves use of a specific peptide substrate optimized for each kinase, containing a fluorophore at each end that make up the FRET pair. The peptide sensitivity to proteolytic cleavage depends on phosphorylation of the peptide. Non-phosphorylated peptide is cleaved by a protease while peptide phosphorylated by the kinase is not cleaved. Cleavage of the peptide disrupts the FRET between the donor (coumarin) and acceptor (fluorescein) fluorophores, resulting in an increase in the ratio of donor emission to acceptor emission. The emission ratio of coumarin to fluorescein is used to assess the reaction progress. The extent of phosphorylation is determined from the emission ratio, which is low when the kinase is active (phosphorylated peptide is not cleaved, FRET pair connected) or higher for inhibited kinase (non-phosphorylated peptide is cleaved, FRET pair separated). Thus, the assay involves a kinase reaction in the presence of varying concentrations of a given compound, a development reaction with site specific protease, and detection of the fluorescent emission ratio of coumarin and fluorscein. […] Reaction conditions for each kinase are determined to provide optimal reaction times, incubation temperature, kinase and ATP concentrations. Test samples are made up in 1× kinase buffer (50 mM HEPES pH 7.5, 50 mM MgCl2, 5 mM EGTA, 0.05% BRIJ-35) and compound at desired concentration prepared in DMSO such that the final DMSO is 1%. […] Typically, assay plates are prepared to 10 μl final volume per sample, adding 2.5 μl of compound at 4× the desired concentration in 4% DMSO (serial dilution of compound provides concentration curve), 5 μl of the desired kinase mixed with Z′-LYTE™ peptide substrate (2× in 2× kinase buffer, final peptide at 2 μM), and 2.5 μl of 4×ATP solution. All kinase except for MAP2K1 were at 10 μM ATP in the kinase reaction, while MAP2K1 was at 100 μM. Samples are mixed and the kinase reaction is incubated 1 hour at room temperature, after which 5 μl of development solution is added and mixed. After incubation for another 1 hour at room temperature, 5 μl of stop reagent is added to each sample and mixed. The fluorescence signals are measured to determine the emission ratio.

Kdr = target: T4, Kdr (Homo sapiens, UniProt P35968); experiment: Z'-Lyte FRET kinase assay (Invitrogen), Kdr; conditions: read-out: IC50, activity toward kinase Kdr
T4 construct: purchased Invitrogen (assay run by Invitrogen)

Yes = target: T5, Yes (Homo sapiens, UniProt P07947); experiment: Z'-Lyte FRET kinase assay (Invitrogen), Yes; conditions: read-out: IC50, activity toward kinase Yes
T5 construct: purchased Invitrogen (Carlsbad, Calif.), screening service
How it was run: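 Serially diluted compound (final 1% DMSO) incubated 1 h at room temperature with kinase, 2 μM FRET peptide and 10 μM ATP in pH 7.5 HEPES buffer. Site-specific protease then cleaves unphosphorylated peptide (1 h); inhibition read as increased coumarin-to-fluorescein emission ratio.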

Btk = target: T6, Btk (Homo sapiens, UniProt Q06187); experiment: Z'-Lyte FRET kinase assay (Invitrogen), Btk; conditions: read-out: IC50, activity toward kinase Btk
T6 construct: purchased Invitrogen (assay run by Invitrogen)
Text: (§1) For example, direct radiometric, indirect FRET or AlphaScreen assays may be used to assess the level of phosphorylation of a substrate in the presence of test compounds in order to determine the inhibitory affect of the compound on the kinase. […] For these assays, compounds of the invention were screened by Invitrogen using Z′-Lyte™ kinase assay.
(§2) Briefly, the Invitrogen kinase assay involves use of a specific peptide substrate optimized for each kinase, containing a fluorophore at each end that make up the FRET pair. The peptide sensitivity to proteolytic cleavage depends on phosphorylation of the peptide. Non-phosphorylated peptide is cleaved by a protease while peptide phosphorylated by the kinase is not cleaved. Cleavage of the peptide disrupts the FRET between the donor (coumarin) and acceptor (fluorescein) fluorophores, resulting in an increase in the ratio of donor emission to acceptor emission. The emission ratio of coumarin to fluorescein is used to assess the reaction progress. […] Thus, the assay involves a kinase reaction in the presence of varying concentrations of a given compound, a development reaction with site specific protease, and detection of the fluorescent emission ratio of coumarin and fluorscein. […] Reaction conditions for each kinase are determined to provide optimal reaction times, incubation temperature, kinase and ATP concentrations. Test samples are made up in 1× kinase buffer (50 mM HEPES pH 7.5, 50 mM MgCl2, 5 mM EGTA, 0.05% BRIJ-35) and compound at desired concentration prepared in DMSO such that the final DMSO is 1%. […] All kinase except for MAP2K1 were at 10 μM ATP in the kinase reaction, while MAP2K1 was at 100 μM. Samples are mixed and the kinase reaction is incubated 1 hour at room temperature, after which 5 μl of development solution is added and mixed. After incubation for another 1 hour at room temperature, 5 μl of stop reagent is added to each sample and mixed. The fluorescence signals are measured to determine the emission ratio.

MAP2K1 = target: T7, MAP2K1 (Homo sapiens, UniProt Q02750); experiment: Z'-Lyte FRET kinase assay (Invitrogen), MAP2K1; conditions: read-out: IC50, activity toward kinase MAP2K1
T7 construct: purchased Invitrogen (assay run by Invitrogen)
Text: as §1, §2

Stk6 = target: T8, Stk6 (Homo sapiens, UniProt O14965); experiment: Z'-Lyte FRET kinase assay (Invitrogen), Stk6; conditions: read-out: IC50, activity toward kinase Stk6
T8 construct: purchased Invitrogen (Carlsbad, Calif.), screening service
T8 sequence (O14965 1-403): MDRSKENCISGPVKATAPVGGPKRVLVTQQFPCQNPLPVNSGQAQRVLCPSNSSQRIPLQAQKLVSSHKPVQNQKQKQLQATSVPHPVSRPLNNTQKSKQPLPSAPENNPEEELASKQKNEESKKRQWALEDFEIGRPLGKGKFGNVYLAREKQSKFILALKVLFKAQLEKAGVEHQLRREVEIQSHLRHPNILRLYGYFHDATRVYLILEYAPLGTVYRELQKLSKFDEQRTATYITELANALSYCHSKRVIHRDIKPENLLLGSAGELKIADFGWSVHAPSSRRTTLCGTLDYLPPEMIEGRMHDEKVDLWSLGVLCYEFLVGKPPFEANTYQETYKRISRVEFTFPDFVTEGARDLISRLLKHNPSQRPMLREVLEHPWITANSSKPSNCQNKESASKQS

Met = target: T9, Met (Homo sapiens, UniProt P08581); experiment: AlphaScreen kinase assay, Met; conditions: read-out: IC50, activity toward kinase Met
T9 construct: P1818.pETN6 BI-PTP MET G1056-G1364-X WT; His6 (N); made in house; host or cells: E. coli (PTP1B co-expressed)
How it was run: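 AlphaScreen read-out: acceptor-bead emission falls when kinase is inhibited. Biotin-peptide substrate captured on streptavidin donor beads, phospho-specific antibody on acceptor beads. 8 concentrations, 1:3 dilution series, from 20 mM DMSO stocks.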

c-Raf-1 = target: T10, c-Raf-1 (Homo sapiens, UniProt P04049); experiment: AlphaScreen kinase assay, c-Raf-1; conditions: read-out: IC50, activity toward kinase c-Raf-1
T10 construct: purchased Upstate Biotechnology

Jnk3 = target: T11, Jnk3 (Homo sapiens, UniProt P53779); experiment: AlphaScreen kinase assay, Jnk3; conditions: read-out: IC50, activity toward kinase Jnk3
T11 construct: purchased Upstate Biotechnology

FGFR1 = target: T12, FGFR1 (Homo sapiens, UniProt P11362, C488A/C584S); experiment: AlphaScreen kinase assay, FGFR1; conditions: read-out: IC50, activity toward kinase FGFR
T12 construct: P1351.pET N6 BI-PTP FGFR A458-E765-X C488A, C584S; made in house; host or cells: E. coli (PTP1B co-expressed)

Fms = target: T13, Fms (Homo sapiens, UniProt P07333); experiment: AlphaScreen kinase assay, Fms; conditions: read-out: IC50, activity toward kinase Fms
T13 construct: purchased Upstate Biotechnology

Jnk1 = target: T14, Jnk1 (Homo sapiens, UniProt P45983); experiment: AlphaScreen kinase assay, Jnk1; conditions: read-out: IC50, activity toward kinase Jnk1
T14 construct: purchased Upstate Biotechnology

Kit = target: T15, Kit (Homo sapiens, UniProt P10721); experiment: AlphaScreen kinase assay, Kit; conditions: read-out: IC50, activity toward kinase Kit
T15 construct: P1332.N6 BI PTP KIT M552-K948-X COD; His6 (N); made in house; host or cells: E. coli (PTP1B co-expressed)

Src = target: T16, Src (Homo sapiens, UniProt P12931); experiment: AlphaScreen kinase assay, Src; conditions: read-out: IC50, activity toward kinase Src
T16 construct: P1144. pET-N6 BI-PTP SRC V86-L536-X; made in house

B-Raf = target: T17, B-Raf (Homo sapiens, UniProt P15056); experiment: AlphaScreen kinase assay, B-Raf; conditions: read-out: IC50, activity toward kinase B-Raf
T17 construct: purchased Upstate Biotechnology

Measured: IC50

T6 sequence (Q06187 whole entry): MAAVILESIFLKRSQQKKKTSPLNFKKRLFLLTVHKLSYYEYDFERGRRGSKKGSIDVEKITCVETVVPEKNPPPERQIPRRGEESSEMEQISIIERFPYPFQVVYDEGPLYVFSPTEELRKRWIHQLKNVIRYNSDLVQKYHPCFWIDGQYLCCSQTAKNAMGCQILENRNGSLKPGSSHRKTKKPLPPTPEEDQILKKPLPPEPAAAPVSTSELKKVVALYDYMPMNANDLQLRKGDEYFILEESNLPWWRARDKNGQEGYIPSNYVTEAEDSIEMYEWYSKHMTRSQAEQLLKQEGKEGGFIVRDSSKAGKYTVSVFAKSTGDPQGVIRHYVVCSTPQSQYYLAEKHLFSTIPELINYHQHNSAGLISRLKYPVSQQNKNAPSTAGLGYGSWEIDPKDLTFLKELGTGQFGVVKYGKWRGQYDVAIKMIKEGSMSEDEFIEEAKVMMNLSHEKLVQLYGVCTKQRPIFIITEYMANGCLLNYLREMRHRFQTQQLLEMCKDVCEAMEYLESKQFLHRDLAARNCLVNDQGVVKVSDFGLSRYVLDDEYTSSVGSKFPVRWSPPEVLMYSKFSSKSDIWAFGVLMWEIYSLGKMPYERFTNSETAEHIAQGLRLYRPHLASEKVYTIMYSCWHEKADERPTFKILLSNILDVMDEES
Chain of Gsk3β (P49841 whole entry): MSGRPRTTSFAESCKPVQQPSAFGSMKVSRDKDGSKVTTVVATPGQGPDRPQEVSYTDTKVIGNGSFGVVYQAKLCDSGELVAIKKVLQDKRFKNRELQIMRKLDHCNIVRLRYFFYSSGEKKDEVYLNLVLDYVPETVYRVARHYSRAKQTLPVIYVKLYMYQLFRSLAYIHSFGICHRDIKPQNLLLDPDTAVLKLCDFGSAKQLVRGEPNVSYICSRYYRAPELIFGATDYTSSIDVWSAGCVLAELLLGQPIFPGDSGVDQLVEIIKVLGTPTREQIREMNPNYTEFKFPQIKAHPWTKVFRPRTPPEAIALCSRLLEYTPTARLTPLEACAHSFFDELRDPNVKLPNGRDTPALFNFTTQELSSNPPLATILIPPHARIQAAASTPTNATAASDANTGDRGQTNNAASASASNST
T4 sequence (P35968 20-1356): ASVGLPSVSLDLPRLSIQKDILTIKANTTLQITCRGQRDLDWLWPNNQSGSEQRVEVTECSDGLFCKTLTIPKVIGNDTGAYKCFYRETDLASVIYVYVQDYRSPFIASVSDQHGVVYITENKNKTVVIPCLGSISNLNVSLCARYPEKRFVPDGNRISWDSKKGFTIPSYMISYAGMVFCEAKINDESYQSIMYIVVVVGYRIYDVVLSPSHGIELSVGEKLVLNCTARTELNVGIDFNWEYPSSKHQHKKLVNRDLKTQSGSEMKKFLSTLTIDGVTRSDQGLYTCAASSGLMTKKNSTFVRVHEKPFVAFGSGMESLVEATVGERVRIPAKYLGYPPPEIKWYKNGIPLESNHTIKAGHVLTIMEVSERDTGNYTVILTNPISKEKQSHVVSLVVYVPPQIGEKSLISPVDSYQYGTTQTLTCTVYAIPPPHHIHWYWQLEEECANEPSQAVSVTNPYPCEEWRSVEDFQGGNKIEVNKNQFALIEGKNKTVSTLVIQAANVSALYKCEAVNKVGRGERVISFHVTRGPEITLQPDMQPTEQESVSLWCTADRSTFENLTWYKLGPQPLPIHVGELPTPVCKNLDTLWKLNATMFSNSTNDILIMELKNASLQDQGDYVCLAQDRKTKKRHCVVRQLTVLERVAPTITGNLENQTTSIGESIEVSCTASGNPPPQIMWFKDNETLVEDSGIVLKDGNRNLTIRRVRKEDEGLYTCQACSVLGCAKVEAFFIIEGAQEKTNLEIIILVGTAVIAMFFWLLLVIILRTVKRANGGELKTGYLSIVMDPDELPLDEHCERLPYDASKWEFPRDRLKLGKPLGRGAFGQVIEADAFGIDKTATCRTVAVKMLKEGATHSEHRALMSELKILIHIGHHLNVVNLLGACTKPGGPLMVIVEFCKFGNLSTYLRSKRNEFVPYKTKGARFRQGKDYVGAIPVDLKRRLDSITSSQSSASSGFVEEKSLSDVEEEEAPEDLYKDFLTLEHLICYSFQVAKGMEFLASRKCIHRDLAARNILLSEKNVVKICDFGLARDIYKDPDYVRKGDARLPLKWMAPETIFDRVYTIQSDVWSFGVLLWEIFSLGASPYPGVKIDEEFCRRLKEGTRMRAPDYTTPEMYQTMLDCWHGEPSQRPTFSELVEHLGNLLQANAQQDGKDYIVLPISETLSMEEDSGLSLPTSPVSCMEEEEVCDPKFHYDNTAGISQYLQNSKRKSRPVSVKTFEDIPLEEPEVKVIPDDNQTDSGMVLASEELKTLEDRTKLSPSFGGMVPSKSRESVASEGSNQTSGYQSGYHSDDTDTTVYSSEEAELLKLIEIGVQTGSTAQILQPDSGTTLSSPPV
T5 sequence (P07947 whole entry): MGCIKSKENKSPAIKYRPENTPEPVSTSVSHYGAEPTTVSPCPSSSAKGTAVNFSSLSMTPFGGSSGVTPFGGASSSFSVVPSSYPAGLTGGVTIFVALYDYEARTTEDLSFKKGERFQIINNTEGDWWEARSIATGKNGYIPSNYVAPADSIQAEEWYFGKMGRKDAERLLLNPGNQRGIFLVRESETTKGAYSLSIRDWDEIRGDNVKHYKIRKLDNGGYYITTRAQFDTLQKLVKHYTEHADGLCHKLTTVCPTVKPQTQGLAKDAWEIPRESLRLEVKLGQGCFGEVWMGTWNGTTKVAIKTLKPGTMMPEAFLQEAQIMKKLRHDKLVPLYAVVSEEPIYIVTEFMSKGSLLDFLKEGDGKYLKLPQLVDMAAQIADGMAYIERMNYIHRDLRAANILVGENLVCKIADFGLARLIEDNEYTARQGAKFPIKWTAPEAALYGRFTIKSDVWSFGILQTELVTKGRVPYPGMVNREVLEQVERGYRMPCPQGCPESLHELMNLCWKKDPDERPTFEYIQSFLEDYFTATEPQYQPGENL
T2 sequence (P15056 with tags, fused parts or gaps V600E): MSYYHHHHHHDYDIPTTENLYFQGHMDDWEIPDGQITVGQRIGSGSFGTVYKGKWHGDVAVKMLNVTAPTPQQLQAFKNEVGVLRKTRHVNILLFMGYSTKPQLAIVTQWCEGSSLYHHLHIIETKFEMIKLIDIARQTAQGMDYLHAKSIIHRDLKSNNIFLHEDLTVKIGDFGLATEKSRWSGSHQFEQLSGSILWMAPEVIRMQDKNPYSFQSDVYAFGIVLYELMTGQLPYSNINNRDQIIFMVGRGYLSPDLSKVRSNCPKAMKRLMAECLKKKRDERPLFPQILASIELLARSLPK
T12 sequence (P11362 458-765 C488A/C584S): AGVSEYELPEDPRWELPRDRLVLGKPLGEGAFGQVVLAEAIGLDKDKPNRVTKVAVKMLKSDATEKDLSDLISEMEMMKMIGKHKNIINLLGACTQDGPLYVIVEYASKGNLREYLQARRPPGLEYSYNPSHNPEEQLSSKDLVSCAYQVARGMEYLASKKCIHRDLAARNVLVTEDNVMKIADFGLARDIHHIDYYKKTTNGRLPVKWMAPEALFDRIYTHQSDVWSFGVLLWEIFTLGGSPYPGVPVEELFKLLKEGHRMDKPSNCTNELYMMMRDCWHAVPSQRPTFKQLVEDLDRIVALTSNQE
T9 sequence (P08581 with tags, fused parts or gaps): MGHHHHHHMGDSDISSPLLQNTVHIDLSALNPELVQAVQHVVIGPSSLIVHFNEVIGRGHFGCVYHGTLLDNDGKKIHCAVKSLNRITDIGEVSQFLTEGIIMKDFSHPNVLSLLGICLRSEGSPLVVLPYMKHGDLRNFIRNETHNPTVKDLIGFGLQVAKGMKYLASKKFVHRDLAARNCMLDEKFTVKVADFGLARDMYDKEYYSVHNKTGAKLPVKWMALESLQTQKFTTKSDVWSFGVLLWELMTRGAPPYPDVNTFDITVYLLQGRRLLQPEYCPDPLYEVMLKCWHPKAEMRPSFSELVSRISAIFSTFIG
T17 sequence (P15056 whole entry): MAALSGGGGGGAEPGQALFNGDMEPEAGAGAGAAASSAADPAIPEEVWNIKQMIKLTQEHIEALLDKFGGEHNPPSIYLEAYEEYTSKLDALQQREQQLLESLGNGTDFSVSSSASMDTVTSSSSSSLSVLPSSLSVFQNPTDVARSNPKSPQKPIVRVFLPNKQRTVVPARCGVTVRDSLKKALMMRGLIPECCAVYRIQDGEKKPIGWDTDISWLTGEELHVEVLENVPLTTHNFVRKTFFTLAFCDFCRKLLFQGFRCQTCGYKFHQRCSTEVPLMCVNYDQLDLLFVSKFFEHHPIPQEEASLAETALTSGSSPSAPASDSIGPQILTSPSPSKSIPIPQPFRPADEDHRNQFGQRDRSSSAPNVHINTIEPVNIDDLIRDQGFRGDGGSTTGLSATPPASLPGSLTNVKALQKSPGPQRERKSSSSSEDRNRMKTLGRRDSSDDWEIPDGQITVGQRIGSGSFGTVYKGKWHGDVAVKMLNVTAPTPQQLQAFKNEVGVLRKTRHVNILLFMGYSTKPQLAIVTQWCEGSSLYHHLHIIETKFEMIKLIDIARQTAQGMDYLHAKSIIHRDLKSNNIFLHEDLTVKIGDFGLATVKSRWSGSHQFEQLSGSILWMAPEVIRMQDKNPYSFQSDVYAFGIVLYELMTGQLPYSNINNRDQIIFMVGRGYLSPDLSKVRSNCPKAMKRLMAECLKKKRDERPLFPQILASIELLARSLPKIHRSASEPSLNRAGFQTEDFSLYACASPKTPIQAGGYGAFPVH

NC(=O)c1ccc(-c2ccnc3[nH]cc(C(=O)c4cccc(Cl)c4Cl)c23)cc1 [Compound P-0053]
≤ 10 µM: Ret | Gsk3β | B-Raf V600E | EphB2 | Kdr | Yes | Btk

O=C(CCBr)c1c[nH]c2ncccc12 [Compound P-0081]
≤ 10 µM: MAP2K1 | Gsk3β | Kdr | Yes | Btk | Stk6

Nc1ccc(F)c(C(=O)c2c[nH]c3ncc(-c4cccnc4)cc23)c1F [Compound P-0763, (3-amino-2,6-difluoro-phenyl)-(5-pyridin-3-yl-1H-pyrrolo[2,3-b]pyridin-3-yl)-methanone]
not listed: EphB2 | Kdr | Yes | MAP2K1 | Stk6
≤ 10 µM: all other assays above
